Data from PubChem BioAssay (NCI).
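Following 48 hours of exposure in 96-well plates, responses at five concentrations were used to interpolate endpoints linearly. GI50 is the concentration that inhibits growth by half. At the TGI there is no net growth.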

What was measured:
Test in all cases: DTP human tumour cell line panel, 48 h
HCT-116 colon = tested on: HCT-116 colon
A498 renal = tested on: A498 renal
MCF7 breast = tested on: MCF7 breast
UO-31 renal = tested on: UO-31 renal
MOLT-4 leukemia = tested on: MOLT-4 leukemia
SK-OV-3 ovarian = tested on: SK-OV-3 ovarian
HOP-62 NSCLC = tested on: HOP-62 NSCLC
COLO 205 colon = tested on: COLO 205 colon
T-47D breast = tested on: T-47D breast
ACHN renal = tested on: ACHN renal

| Structure (SMILES) | GI50 (HCT-116 colon) [µM] | TGI (HCT-116 colon) [µM] | GI50 (A498 renal) [µM] | TGI (A498 renal) [µM] | GI50 (MCF7 breast) [µM] | TGI (MCF7 breast) [µM] | GI50 (UO-31 renal) [µM] | TGI (UO-31 renal) [µM] | GI50 (MOLT-4 leukemia) [µM] | TGI (MOLT-4 leukemia) [µM] | GI50 (SK-OV-3 ovarian) [µM] | TGI (SK-OV-3 ovarian) [µM] | GI50 (HOP-62 NSCLC) [µM] | TGI (HOP-62 NSCLC) [µM] | GI50 (COLO 205 colon) [µM] | TGI (COLO 205 colon) [µM] | GI50 (T-47D breast) [µM] | TGI (T-47D breast) [µM] | GI50 (ACHN renal) [µM] | TGI (ACHN renal) [µM] |
| --- | --- | --- | --- | --- | --- | --- | --- | --- | --- | --- | --- | --- | --- | --- | --- | --- | --- | --- | --- | --- |
| COc1ccc2[nH]c(O)c(/C=c3/cc4c(c(-c5cc(OC)c(OC)c(OC)c5)n3)=Nc3ccccc3-4)c2c1 | 3.49 | 64.7 | 1.7 | 8.72 | 2.11 | > 100 | 6.62 | > 100 | 1.94 | 10.7 | > 100 | > 100 | 11.6 | > 100 | 3.67 | 21.5 | 28.5 | > 100 | 7.47 | > 100 |
| Cc1ccc([C@@H]2[C@@H](C(=O)c3ccccn3)[C@H](c3ccc(C)cc3)C[C@](O)(c3ccccn3)[C@H]2C(=O)c2ccccn2)cc1 | – | > 100 | – | > 41.6 | – | > 100 | – | > 100 | – | > 100 | – | > 39.2 | – | > 100 | – | > 100 | – | > 100 | – | > 40.4 |
| O=C(O)CSc1nnc(COc2ccc(Cl)cc2)n1-c1ccccc1 | – | > 100 | – | > 100 | – | > 100 | – | > 100 | – | > 100 | – | > 100 | – | > 100 | – | > 100 | – | > 100 | – | > 100 |
| CN(C)/N=N/c1nc2c(c(=O)n(C)c(=O)n2C)n1C | – | > 100 | – | > 100 | – | > 100 | – | > 100 | – | > 100 | – | > 100 | – | > 100 | – | > 100 | – | > 100 | – | > 100 |
| O=C(CCCCCCCCC(=O)NN1C(=O)/C(=C\c2ccc(O)c(O)c2)SC1c1ccc(Cl)cc1)NN1C(=O)/C(=C\c2ccc(O)c(O)c2)SC1c1ccc(Cl)cc1 (stereo not given) | – | > 100 | – | 69 | – | > 100 | – | > 55 | – | 15.3 | – | > 90.9 | – | 31.5 | – | > 100 | – | > 100 | – | 71.8 |
| OCCCCCNc1c2ccccc2nc2ccccc12 | – | 21.1 | – | 12.7 | – | 6.11 | – | 10 | – | > 63.3 | – | 13.7 | – | 6.68 | – | 4.54 | – | 8.38 | – | 1.42 |
| CN1C(=O)C2C(=O)N(Cc3ccccc3)CC(=O)N2c2cccnc21 (stereo not given) | – | > 100 | – | > 100 | – | > 100 | – | > 100 | – | > 100 | – | > 100 | – | > 100 | – | > 100 | – | > 100 | – | > 100 |
| Brc1ccc(CCNCCN2CCCCC2)cc1 | – | 24.4 | – | 32 | – | 29.5 | – | 24.6 | – | > 100 | – | 42 | – | 34.9 | – | 25.6 | – | 32 | – | 42.6 |
| CC1=C2C(=O)NN=C2CCN1c1ccc(Br)cc1 | – | > 100 | – | > 100 | – | > 100 | – | > 100 | – | > 100 | – | > 100 | – | > 100 | – | > 100 | – | > 100 | – | > 100 |
| c1ccc2c(c1)OC(N1CCCC1)c1cnc(N3CCCC3)nc1-2 (stereo not given) | – | > 100 | – | 76 | – | 52.9 | – | 87.7 | – | 70.5 | – | > 100 | – | > 100 | – | > 100 | – | 93.3 | – | > 100 |
| CN(CCC#N)c1ccc(/C=C2\SC(=S)NC2=O)cc1 | – | > 100 | – | > 100 | – | > 100 | – | > 100 | – | > 100 | – | > 100 | – | > 100 | – | > 100 | – | > 100 | – | > 100 |
| COCOC1/C=C/CCCC#C[C@H](C)C(=O)CC1 (stereo not given in full) | – | 5.99 | – | 25.4 | – | 23.1 | – | 28 | – | > 29.4 | – | 29.3 | – | 34.8 | – | 17.6 | – | 31.3 | – | 27.8 |
| CC(CN1c2ccccc2Sc2ccccc21)N(C)C (stereo not given) | – | 28.9 | – | 34.4 | – | 42.8 | – | 32.8 | – | 40.7 | – | 32.6 | – | 28.5 | – | 29.2 | – | 41.6 | – | 30.7 |
| CSc1nc(Cl)c2c(n1)Sc1nc3cc4c(cc3n1C2O)OCCO4 (stereo not given) | – | 26.6 | – | 15.9 | – | 27.7 | – | 16 | – | 16.7 | – | > 53.4 | – | 23 | – | 0.142 | – | 65.3 | – | 26.8 |
| O=C(CN1c2ccccc2Sc2ccccc21)N1CCNCC1 | – | > 100 | – | > 100 | – | > 100 | – | > 100 | – | > 100 | – | > 100 | – | > 100 | – | > 100 | – | > 100 | – | > 100 |
| CCOc1cc(NC(C)=O)ccc1C(=O)NNC(=O)c1ccccc1OC(C)=O | – | > 36.8 | – | 73.8 | – | > 100 | – | > 100 | – | > 40.5 | – | > 100 | – | > 100 | – | > 77.9 | – | > 46.4 | – | > 100 |
| O=C1/C(=C/c2ccccc2)N=C(c2ccccc2)N1n1c(-c2ccccc2)nc2ccccc2c1=O | – | > 100 | – | > 100 | – | > 100 | – | > 100 | – | > 100 | – | > 100 | – | > 100 | – | > 100 | – | > 100 | – | > 100 |
| O=C1CCC[C@@H]2NC[C@@H](c3ccc4c(c3)OCO4)[C@H]12 | – | > 25 | – | > 25 | – | > 25 | – | > 25 | – | > 25 | – | > 25 | – | > 25 | – | > 25 | – | > 25 | – | > 25 |
| C=C1CC(COc2cc(=O)oc3ccccc23)(c2ccccc2)OC1=O (stereo not given) | – | 2.87 | – | 7.47 | – | 2.14 | – | 16 | – | > 20.8 | – | 16.1 | – | 22.9 | – | 3.1 | – | 5.27 | – | 4.54 |
| C[N+]1=C2[B-](C(C)(C)C)=[N+](C(C)(C)C)[B-]2(C(C)(C)C)[N+](C)=C2[B-](C(C)(C)C)=[N+](C(C)(C)C)[B-]21C(C)(C)C (stereo not given) | – | > 100 | – | > 100 | – | > 100 | – | > 100 | – | > 100 | – | > 100 | – | > 100 | – | > 100 | – | > 100 | – | > 100 |
| O=c1nc(N2CCN(c3ccccc3)CC2)ccn1C1OC(CO)C(O)C1O (stereo not given) | – | > 100 | – | > 100 | – | > 100 | – | > 100 | – | > 100 | – | > 100 | – | > 100 | – | > 100 | – | 65.6 | – | > 100 |
| OC1C2[C@@H](O)CCCN2C[C@@H](O)[C@H]1O (stereo not given in full) | – | > 100 | – | > 100 | – | > 100 | – | > 100 | – | > 100 | – | > 100 | – | > 100 | – | > 100 | – | > 100 | – | > 100 |
| CN(C)CCCOc1nc2c(c(=O)n(C)c(=O)n2C)n1C (tested in a mixture with another compound) | – | > 100 | – | > 100 | – | > 100 | – | > 100 | – | 13.9 | – | > 100 | – | > 100 | – | > 100 | – | > 100 | – | 68.8 |
| CC(C)(N=NC(C)(C)C(=O)NCCO)C(=O)NCCO | – | > 100 | – | > 100 | – | > 100 | – | > 100 | – | > 100 | – | > 100 | – | > 100 | – | > 100 | – | > 100 | – | > 100 |
| CC(C)c1ccc2[nH]c(O)c(-c3[nH]c4ccccc4c3N=O)c2c1 | – | 14 | – | 9.29 | – | 5.71 | – | 12 | – | 15.1 | – | 19.6 | – | 25.2 | – | 18.1 | – | 25.4 | – | 14.6 |
| Cc1nnc2n1N=C(c1cc(F)c(Cl)cc1Cl)/C(=C/c1ccc(Cl)cc1)S2 | – | 21 | – | 41.3 | – | 50.8 | – | 27.4 | – | > 100 | – | > 100 | – | 31.2 | – | > 100 | – | > 100 | – | 41.7 |
| CC(C)Sc1nc(C#N)cc2c1CCCC2 | – | > 100 | – | > 100 | – | > 100 | – | > 100 | – | 61.6 | – | > 100 | – | > 100 | – | 50.1 | – | > 100 | – | > 100 |
| CCCCCCCCCCCCCCCCCCNc1ccn(C2OC(COP(=O)(O)OCC3OC(n4ccc(NC(=O)CCCCCCCCCCCCCCCCC)nc4=O)C(OC(C)=O)C3OC(C)=O)C(OC(C)=O)C2OC(C)=O)c(=O)n1 (stereo not given) | – | > 100 | – | > 100 | – | > 100 | – | > 100 | – | > 100 | – | > 100 | – | > 100 | – | > 100 | – | > 100 | – | > 100 |
